Results: ChEMBL document CHEMBL1122922, “Inhibition of muscarinic receptor binding and acetylcholine-induced contraction of guinea pig ileum by analogues of 5'-(isobutylthio)adenosine” (J Med Chem, 1985)

Target: Muscarinic acetylcholine receptor
Test: Ability to inhibit binding of [3H]QNB to Muscarinic acetylcholine receptor in cultured N4TG1 neuroblastoma cells at 1e-8 to 1e-3 M

| Structure (SMILES) | I 50 [µM] |
| --- | --- |
| CC(C)CSC[C@H]1OC(n2cnc3c(N)ccnc32)[C@H](O)[C@@H]1O (some centres undefined) | 52 |
| CC(C)CSC[C@H]1OC(n2cnc3c(N)nccc32)[C@H](O)[C@@H]1O (some centres undefined) | 39 |
| CC(C)CSC[C@H]1OC(n2cnc3c(N)ncnc32)[C@H](O)[C@@H]1O (some centres undefined) | 1500 |
| CC(C)CSCC1CC(n2cnc3c(N)nccc32)C(O)C1O (centres undefined) | 210 |
